Data published in the supplement of paper PMC9663587.

Key:
[1] = compound: CCc1cnn2c(NCc3ccc[n+]([O-])c3)cc(N3CCCC[C@H]3CCO)nc12; experiment: increase in dead-cell fraction, 72 h; higher = more death;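 also: breast cancer cell lines in 384-well plates, stained with Hoechst plus LIVE/DEAD far red dye and imaged, cells above an LDR intensity threshold counted dead, Hoechst-negative corpses included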
Flavopiridol [2] = compound: T1, CN1CC[C@H](c2c(O)cc(O)c3c(=O)cc(-c4ccccc4Cl)oc23)[C@H](O)C1 [Flavopiridol]; experiment: as above
LEE011/Ribociclib = compound: CN(C)C(=O)c1cc2cnc(Nc3ccc(N4CCNCC4)cn3)nc2n1C1CCCC1 [LEE011/Ribociclib]; experiment: as above
BSJ-03-123 = compound: CC(=O)c1c(C)c2cnc(Nc3ccc(N4CCN(CCOCCOCCOCCNC(=O)COc5cccc6c5C(=O)N(C5CCC(=O)NC5=O)C6=O)CC4)cn3)nc2n(C2CCCC2)c1=O [BSJ-03-123]; experiment: as above
[3] = compound: CC(=O)c1c(C)c2cnc(Nc3ccc(N4CCNCC4)cn3)nc2n(C2CCCC2)c1=O; experiment: as above
[4] = compound: CCN1CCN(Cc2ccc(Nc3ncc(F)c(-c4cc(F)c5nc(C)n(C(C)C)c5c4)n3)nc2)CC1; experiment: as above
THZ1 [5] = compound: T2, CN(C)C/C=C/C(=O)Nc1ccc(C(=O)Nc2cccc(Nc3ncc(Cl)c(-c4c[nH]c5ccccc45)n3)c2)cc1 [THZ1]; experiment: as above
Neratinib/HKI272 = compound: CCOc1cc2ncc(C#N)c(Nc3ccc(OCc4ccccn4)c(Cl)c3)c2cc1NC(=O)/C=C/CN(C)C [Neratinib/HKI272]; experiment: as above
Flavopiridol [6] = compound: T1, Flavopiridol; experiment: GR value, 72 h; higher = faster growth (1 = untreated, <0 = killing);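 also: breast cancer and non-malignant breast epithelial lines, nine half-log doses, viable cells counted by Hoechst and LIVE/DEAD dye imaging versus time-zero plates and DMSO controls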
[7] = compound: CC(=O)c1c(C)c2cnc(Nc3ccc(N4CCNCC4)cn3)nc2n(C2CCCC2)c1=O; experiment: as above
THZ531 = compound: CN(C)C/C=C/C(=O)Nc1ccc(C(=O)N2CCC[C@@H](Nc3ncc(Cl)c(-c4c[nH]c5ccccc45)n3)C2)cc1 [THZ531]; experiment: as above
THZ1 [8] = compound: T2, THZ1; experiment: as above

T47D
increase in dead-cell fraction ([1]; 0.0001 µM): -0.0001 | increase in dead-cell fraction ([1]; 0.0003162 µM): 0.0027 | increase in dead-cell fraction ([1]; 0.001 µM): -0.0018 | increase in dead-cell fraction ([1]; 0.003162 µM): -0.0021 | increase in dead-cell fraction ([1]; 0.01 µM): 0.0073 | increase in dead-cell fraction ([1]; 0.03162 µM): 0.0576 | increase in dead-cell fraction ([1]; 0.1 µM): 0.106 | increase in dead-cell fraction ([1]; 0.3162 µM): 0.138 | increase in dead-cell fraction ([1]; 1 µM): 0.127 | increase in dead-cell fraction (Flavopiridol [2]; 0.0001 µM): 0.0101 | increase in dead-cell fraction (Flavopiridol [2]; 0.0003162 µM): -0.0037 | increase in dead-cell fraction (Flavopiridol [2]; 0.001 µM): 0.0027 | increase in dead-cell fraction (Flavopiridol [2]; 0.003162 µM): 0.0005 | increase in dead-cell fraction (Flavopiridol [2]; 0.01 µM): 0.0011 | increase in dead-cell fraction (Flavopiridol [2]; 0.03162 µM): -0.0028 | increase in dead-cell fraction (Flavopiridol [2]; 0.1 µM): 0.0027 | increase in dead-cell fraction (Flavopiridol [2]; 0.3162 µM): 0.0159 | increase in dead-cell fraction (Flavopiridol [2]; 1 µM): 0.0323 | increase in dead-cell fraction (LEE011/Ribociclib; 0.001 µM): 0.0085 | increase in dead-cell fraction (LEE011/Ribociclib; 0.003162 µM): 0.0069 | increase in dead-cell fraction (LEE011/Ribociclib; 0.01 µM): 0.0061 | increase in dead-cell fraction (LEE011/Ribociclib; 0.03162 µM): 0.0139 | increase in dead-cell fraction (LEE011/Ribociclib; 0.1 µM): 0.0374 | increase in dead-cell fraction (LEE011/Ribociclib; 0.3162 µM): 0.0392 | increase in dead-cell fraction (LEE011/Ribociclib; 1 µM): 0.0267 | increase in dead-cell fraction (LEE011/Ribociclib; 3.162 µM): 0.0405 | increase in dead-cell fraction (LEE011/Ribociclib; 10 µM): 0.0242 | increase in dead-cell fraction (BSJ-03-123; 0.001 µM): 0.0097 | increase in dead-cell fraction (BSJ-03-123; 0.003162 µM): 0.0074 | increase in dead-cell fraction (BSJ-03-123; 0.01 µM): 0.0101 | increase in dead-cell fraction (BSJ-03-123; 0.03162 µM): 0.0084 | increase in dead-cell fraction (BSJ-03-123; 0.1 µM): 0.019 | increase in dead-cell fraction (BSJ-03-123; 0.3162 µM): 0.021 | increase in dead-cell fraction (BSJ-03-123; 1 µM): 0.0319 | increase in dead-cell fraction (BSJ-03-123; 3.162 µM): 0.022 | increase in dead-cell fraction (BSJ-03-123; 10 µM): 0.0281 | increase in dead-cell fraction ([3]; 0.0003162 µM): 0.0016 | increase in dead-cell fraction ([3]; 0.001 µM): -0.001 | increase in dead-cell fraction ([3]; 0.003162 µM): 0.0022 | increase in dead-cell fraction ([3]; 0.01 µM): 0.0006 | increase in dead-cell fraction ([3]; 0.03162 µM): 0.0078 | increase in dead-cell fraction ([3]; 0.1 µM): 0.0116 | increase in dead-cell fraction ([3]; 0.3162 µM): 0.0158 | increase in dead-cell fraction ([3]; 1 µM): 0.0154 | increase in dead-cell fraction ([3]; 3.162 µM): 0.0097 | increase in dead-cell fraction ([4]; 0.001 µM): -0.0007 | increase in dead-cell fraction ([4]; 0.003162 µM): 0.0004 | increase in dead-cell fraction ([4]; 0.01 µM): 0.0119 | increase in dead-cell fraction ([4]; 0.03162 µM): 0.0119 | increase in dead-cell fraction ([4]; 0.1 µM): 0.0081 | increase in dead-cell fraction ([4]; 0.3162 µM): 0.0178 | increase in dead-cell fraction ([4]; 1 µM): 0.0167 | increase in dead-cell fraction ([4]; 3.162 µM): 0.0642 | increase in dead-cell fraction ([4]; 10 µM): 0.104 | increase in dead-cell fraction (THZ1 [5]; 0.0001 µM): -0.0018 | increase in dead-cell fraction (THZ1 [5]; 0.0003162 µM): 0.0029 | increase in dead-cell fraction (THZ1 [5]; 0.001 µM): 0.0039 | increase in dead-cell fraction (THZ1 [5]; 0.003162 µM): 0.005 | increase in dead-cell fraction (THZ1 [5]; 0.01 µM): -0.0043 | increase in dead-cell fraction (THZ1 [5]; 0.03162 µM): 0.0328 | increase in dead-cell fraction (THZ1 [5]; 0.1 µM): 0.0197 | increase in dead-cell fraction (THZ1 [5]; 0.3162 µM): 0.0299 | increase in dead-cell fraction (THZ1 [5]; 1 µM): 0.0416 | increase in dead-cell fraction (Neratinib/HKI272; 0.0003162 µM): -0.0033 | increase in dead-cell fraction (Neratinib/HKI272; 0.001 µM): 0.0054 | increase in dead-cell fraction (Neratinib/HKI272; 0.003162 µM): 0.0022 | increase in dead-cell fraction (Neratinib/HKI272; 0.01 µM): 0.0045 | increase in dead-cell fraction (Neratinib/HKI272; 0.03162 µM): 0.0043 | increase in dead-cell fraction (Neratinib/HKI272; 0.1 µM): 0.0001 | increase in dead-cell fraction (Neratinib/HKI272; 0.3162 µM): 0.0101 | increase in dead-cell fraction (Neratinib/HKI272; 1 µM): 0.0084 | increase in dead-cell fraction (Neratinib/HKI272; 3.162 µM): 0.0225 | GR value (Flavopiridol [6]; 0.0001 µM): 0.983 GR | GR value (Flavopiridol [6]; 0.0003162 µM): 1.05 GR | GR value (Flavopiridol [6]; 0.001 µM): 0.945 GR | GR value (Flavopiridol [6]; 0.003162 µM): 1.05 GR | GR value (Flavopiridol [6]; 0.01 µM): 0.897 GR | GR value (Flavopiridol [6]; 0.03162 µM): 0.808 GR | GR value (Flavopiridol [6]; 0.1 µM): 0.548 GR | GR value (Flavopiridol [6]; 0.3162 µM): 0.148 GR | GR value (Flavopiridol [6]; 1 µM): -0.153 GR | GR value ([7]; 0.0003162 µM): 1.07 GR | GR value ([7]; 0.001 µM): 1.08 GR | GR value ([7]; 0.003162 µM): 1.04 GR | GR value ([7]; 0.01 µM): 0.782 GR | GR value ([7]; 0.03162 µM): 0.478 GR | GR value ([7]; 0.1 µM): 0.203 GR | GR value ([7]; 0.3162 µM): 0.177 GR | GR value ([7]; 1 µM): 0.122 GR | GR value ([7]; 3.162 µM): 0.132 GR | GR value (THZ531; 0.0001 µM): 1.06 GR | GR value (THZ531; 0.0003162 µM): 0.984 GR | GR value (THZ531; 0.001 µM): 1.04 GR | GR value (THZ531; 0.003162 µM): 0.925 GR | GR value (THZ531; 0.01 µM): 1.15 GR | GR value (THZ531; 0.03162 µM): 1.06 GR | GR value (THZ531; 0.1 µM): 0.675 GR | GR value (THZ531; 0.3162 µM): -0.121 GR | GR value (THZ531; 1 µM): -0.102 GR | GR value (THZ1 [8]; 0.0001 µM): 0.967 GR | GR value (THZ1 [8]; 0.0003162 µM): 1.08 GR | GR value (THZ1 [8]; 0.001 µM): 0.922 GR | GR value (THZ1 [8]; 0.003162 µM): 1.02 GR | GR value (THZ1 [8]; 0.01 µM): 0.841 GR | GR value (THZ1 [8]; 0.03162 µM): 0.474 GR | GR value (THZ1 [8]; 0.1 µM): -0.116 GR | GR value (THZ1 [8]; 0.3162 µM): -0.142 GR | GR value (THZ1 [8]; 1 µM): -0.269 GR
